# Experimental data: US11547761B1, “Antibody adjuvant conjugates” (The Board of Trustees of the Leland Stanford Junior …, priority 2016, dated 2023)
# “Also recorded” adds a separate entry of the source.
# Key:
# [1] = tested on: recombinant human CD16a protein; assay: ELISA binding to CD16a; settings: titration
# Description: Maxysorp ELISA plates were coated overnight with 1.5 ug/ml recombinant human CD16a protein (R&D Systems 4325-FC-050). Plates were blocked with PBS containing 1% BSA, and incubated with a titration of antibodies or antibody immunoconjugates. Bound antibodies were detected with Peroxidase conjugated AffiniPure F(ab′)2 Fragment Goat Anti-Human IgG (Jackson 109-036-003). TMB (Fisher PI34028) was added to the wells and absorbance at 450 nm was measured after stopping the reaction with TMB stop solution (Fisher NC1291012).
# [2] = target: T1, recombinant human CD64 protein (Homo sapiens, UniProt P12314); assay: ELISA binding to CD64; settings: titration
# T1 construct: purchased R&D Systems
# T1 sequence (P12314 16-374): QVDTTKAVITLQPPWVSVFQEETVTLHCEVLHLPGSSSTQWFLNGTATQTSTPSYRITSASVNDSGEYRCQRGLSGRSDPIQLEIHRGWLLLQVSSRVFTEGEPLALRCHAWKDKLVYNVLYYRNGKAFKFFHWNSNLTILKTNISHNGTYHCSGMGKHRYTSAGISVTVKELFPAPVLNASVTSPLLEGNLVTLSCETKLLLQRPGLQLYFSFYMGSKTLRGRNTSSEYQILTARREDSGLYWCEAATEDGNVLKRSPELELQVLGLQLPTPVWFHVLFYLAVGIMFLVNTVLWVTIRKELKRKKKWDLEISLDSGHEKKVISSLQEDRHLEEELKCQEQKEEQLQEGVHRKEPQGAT
# Description: Maxysorp ELISA plates were coated overnight with 1.5 ug/ml recombinant human CD64 protein (R&D Systems). Plates were blocked with PBS containing 1% BSA, and incubated with a titration of Rituximab or Rituximab immunoconjugates (Rituximab BB-01). Bound antibodies were detected with Peroxidase conjugated AffiniPure F(ab′)2 Fragment Goat Anti-Human IgG (Jackson) using TMB color development and absorbance at 450 nm was measured after stopping the reaction.
# [3] = tested on: human antigen presenting cells; assay: Stimulation of human antigen presenting cells with free adjuvants, flow cytometry; format: cell-based; settings: peripheral blood APCs, 10-fold serial dilutions, 18 hours, 37° C.
# Description: Peripheral blood antigen presenting cells (APCs) were stimulated with 10-fold serial dilutions of R848, Compound 2 or a control TLR agonist at 37° C. After 18 hours, cells were analyzed via flow cytometry. Data are presented as median fluorescence intensity of each indicated marker; n=3.
# To determine if adjuvant functionalization impacted the capacity of Compound 2 or Compound 1 to elicit immune activation, human antigen presenting cells were stimulated with 10-fold serial dilutions of R848, Compound 2, Compound 1 or a control TLR agonist, CL307, for 18 hours prior to analysis via flow cytometry.
# human TLR7 = target: T2, human TLR7 (Homo sapiens, UniProt Q9NYK1); assay: HEK293 TLR reporter (secreted embryonic alkaline phosphatase) assay; format: cell-based; settings: 2-fold serial dilutions, 12 hours at 37° C.
# T2 construct: expressed in transfected cells; host or cells: HEK293
# T2 sequence (Q9NYK1 27-1049): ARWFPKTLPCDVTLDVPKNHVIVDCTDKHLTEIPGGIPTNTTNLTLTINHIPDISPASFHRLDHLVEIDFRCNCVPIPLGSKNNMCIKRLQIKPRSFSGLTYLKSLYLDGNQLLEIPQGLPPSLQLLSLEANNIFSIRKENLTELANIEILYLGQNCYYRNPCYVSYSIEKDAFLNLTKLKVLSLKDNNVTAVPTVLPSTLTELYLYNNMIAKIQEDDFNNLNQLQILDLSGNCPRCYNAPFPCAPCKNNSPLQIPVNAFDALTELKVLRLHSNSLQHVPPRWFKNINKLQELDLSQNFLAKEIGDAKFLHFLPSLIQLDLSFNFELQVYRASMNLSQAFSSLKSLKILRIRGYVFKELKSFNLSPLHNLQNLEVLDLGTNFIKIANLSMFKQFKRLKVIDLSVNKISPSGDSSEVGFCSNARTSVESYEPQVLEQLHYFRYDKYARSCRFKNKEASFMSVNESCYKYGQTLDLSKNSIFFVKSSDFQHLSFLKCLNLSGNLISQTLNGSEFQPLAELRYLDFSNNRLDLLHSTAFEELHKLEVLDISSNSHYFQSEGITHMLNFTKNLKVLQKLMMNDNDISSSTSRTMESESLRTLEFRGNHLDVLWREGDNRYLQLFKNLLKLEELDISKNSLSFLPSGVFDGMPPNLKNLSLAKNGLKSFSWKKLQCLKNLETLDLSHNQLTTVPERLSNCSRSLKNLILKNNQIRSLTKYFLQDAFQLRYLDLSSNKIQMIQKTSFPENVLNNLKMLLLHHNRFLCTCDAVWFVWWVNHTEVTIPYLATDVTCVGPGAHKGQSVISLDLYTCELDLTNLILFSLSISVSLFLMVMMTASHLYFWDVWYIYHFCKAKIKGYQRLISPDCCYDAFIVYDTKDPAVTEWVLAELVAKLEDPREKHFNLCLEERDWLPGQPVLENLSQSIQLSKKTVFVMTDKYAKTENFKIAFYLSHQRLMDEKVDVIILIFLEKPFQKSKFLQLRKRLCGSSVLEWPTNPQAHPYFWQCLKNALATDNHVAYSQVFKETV
# Description: (§1) HEK293 cells were co-transfected with human TLR7 or TLR8 (top two panels) or murine TLR7 (bottom panel) and an inducible secreted embryonic alkaline phosphatase reporter gene under the control of the IFN-β minimal promoter fused to NF-κB and AP-1 binding sites. Cells were subsequently incubated with 2-fold serial dilutions of the indicated adjuvant for 12 hours at 37° C. Activity was measured by spectrophotometry (OD 650 nm) following addition of alkaline phosphatase substrate.
# (§2) Next, the capacity of each functionalized TLR agonist to activate human TLR7 or TLR8 was directly assayed. HEK293 cells were co-transfected with human TLR7 or TLR8 or murine TLR7 and an inducible secreted embryonic alkaline phosphatase reporter gene under the control of the IFN-β minimal promoter fused to NF-κB and AP-1 binding sites. Cells were subsequently incubated with 2-fold serial dilutions of each the indicated adjuvants for 12 hours at 37 C in the presence of an alkaline phosphatase substrate. Activity was measured by spectrophotometry (OD 650 nm).
# human TLR8 = target: T3, human TLR8 (Homo sapiens, UniProt Q9NR97); assay: as above; format: cell-based; settings: 2-fold serial dilutions, 12 hours at 37° C.
# T3 construct: expressed in transfected cells; host or cells: HEK293
# T3 sequence (Q9NR97 27-1041): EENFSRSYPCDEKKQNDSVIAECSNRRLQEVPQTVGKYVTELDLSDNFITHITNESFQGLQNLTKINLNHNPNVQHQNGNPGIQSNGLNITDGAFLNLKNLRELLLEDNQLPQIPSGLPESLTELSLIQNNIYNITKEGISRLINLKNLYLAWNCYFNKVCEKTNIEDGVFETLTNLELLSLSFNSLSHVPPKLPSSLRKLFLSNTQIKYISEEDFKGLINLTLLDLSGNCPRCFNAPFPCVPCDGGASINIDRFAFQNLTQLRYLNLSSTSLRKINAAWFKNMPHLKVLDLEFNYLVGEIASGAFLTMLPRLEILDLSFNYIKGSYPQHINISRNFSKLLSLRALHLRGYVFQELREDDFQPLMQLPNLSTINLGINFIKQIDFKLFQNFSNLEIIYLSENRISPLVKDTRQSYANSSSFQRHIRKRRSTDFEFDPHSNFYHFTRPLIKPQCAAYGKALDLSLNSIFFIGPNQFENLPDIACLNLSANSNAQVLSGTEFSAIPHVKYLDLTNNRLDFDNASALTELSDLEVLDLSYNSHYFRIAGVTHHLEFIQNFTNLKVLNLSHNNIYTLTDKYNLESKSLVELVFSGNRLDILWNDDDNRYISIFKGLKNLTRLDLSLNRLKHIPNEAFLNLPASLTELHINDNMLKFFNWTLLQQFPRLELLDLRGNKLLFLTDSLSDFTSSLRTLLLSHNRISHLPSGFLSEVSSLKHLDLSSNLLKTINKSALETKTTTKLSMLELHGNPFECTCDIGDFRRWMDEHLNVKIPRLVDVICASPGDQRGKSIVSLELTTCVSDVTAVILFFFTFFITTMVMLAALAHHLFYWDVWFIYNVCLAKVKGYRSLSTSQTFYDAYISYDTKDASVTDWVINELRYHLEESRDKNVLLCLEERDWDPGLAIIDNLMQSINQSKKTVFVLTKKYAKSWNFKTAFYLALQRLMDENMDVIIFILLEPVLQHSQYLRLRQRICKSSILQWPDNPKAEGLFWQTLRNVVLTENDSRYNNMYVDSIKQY
# Description: as §1, §2
# murine TLR7 = target: T4, murine TLR7 (Mus musculus, UniProt P58681); assay: as above; format: cell-based; settings: 2-fold serial dilutions, 12 hours at 37° C.
# T4 construct: expressed in transfected cells; host or cells: HEK293
# T4 sequence (P58681 27-1050): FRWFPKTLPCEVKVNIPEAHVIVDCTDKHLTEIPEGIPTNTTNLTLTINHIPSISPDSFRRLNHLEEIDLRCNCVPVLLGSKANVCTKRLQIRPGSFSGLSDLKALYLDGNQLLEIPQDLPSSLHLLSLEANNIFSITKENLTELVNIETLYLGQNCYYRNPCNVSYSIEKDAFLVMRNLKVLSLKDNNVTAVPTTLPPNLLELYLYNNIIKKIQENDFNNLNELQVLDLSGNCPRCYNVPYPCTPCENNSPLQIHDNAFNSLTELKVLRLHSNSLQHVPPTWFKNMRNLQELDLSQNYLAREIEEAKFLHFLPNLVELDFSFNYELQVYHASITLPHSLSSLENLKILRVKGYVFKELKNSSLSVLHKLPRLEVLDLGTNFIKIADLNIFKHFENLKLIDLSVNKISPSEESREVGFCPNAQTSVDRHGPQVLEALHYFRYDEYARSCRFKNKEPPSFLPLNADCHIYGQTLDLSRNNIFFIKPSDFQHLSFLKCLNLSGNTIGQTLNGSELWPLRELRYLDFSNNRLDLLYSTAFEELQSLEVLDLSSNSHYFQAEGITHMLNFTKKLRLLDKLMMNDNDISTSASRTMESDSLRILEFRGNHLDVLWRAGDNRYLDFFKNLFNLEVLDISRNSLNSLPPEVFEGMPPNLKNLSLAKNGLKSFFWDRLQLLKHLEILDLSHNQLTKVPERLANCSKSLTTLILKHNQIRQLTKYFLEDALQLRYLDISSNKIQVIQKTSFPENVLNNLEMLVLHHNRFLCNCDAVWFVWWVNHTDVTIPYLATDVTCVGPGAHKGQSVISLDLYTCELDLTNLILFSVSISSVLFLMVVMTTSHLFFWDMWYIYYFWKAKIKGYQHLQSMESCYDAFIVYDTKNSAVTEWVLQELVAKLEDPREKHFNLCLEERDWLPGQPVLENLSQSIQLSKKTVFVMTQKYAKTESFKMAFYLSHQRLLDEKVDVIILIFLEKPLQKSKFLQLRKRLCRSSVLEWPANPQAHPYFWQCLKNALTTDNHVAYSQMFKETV
# Description: as §1, §2
# [4] = tested on: murine monocyte derived APCs; assay: Cytokine secretion in murine monocyte derived APCs (GM-CSF-pretreated monocytes); format: cell-based; settings: 18 hours
# Description: Specifically, cytokine production is shown in FIG. 21 for GM-CSF-pretreated monocytes that were stimulated for 18 hours with the immunoconjugates or equivalent amounts of the unconjugated components.
Molecule,binding to CD16a (fraction of maximal OD signal) [1],binding to CD64 [2],myeloid cell activation (median fluorescence intensity of activation markers) [3],human TLR7 activation (OD 650 nm) (human TLR7),human TLR8 activation (OD 650 nm) (human TLR8),murine TLR7 activation (OD 650 nm) (murine TLR7),"cytokine response (TNFα, IL-6, IL-12p70) [4]"
aglycosyl Rituximab: aglycosyl Rituximab (Invivogen hcd20-mab12),diminished binding,–,–,–,–,–,–
deglycosylated Rituximab: Rituximab deglycosylated with PNGase F,–,impaired binding to CD64,–,–,–,–,–
CCCCc1nc2c(N)nc3ccccc3c2n1CCCCN [Compound 1],–,–,performed similarly to R848,activated both human TLR7 and TLR8,activated both human TLR7 and TLR8,activated murine TLR7,failed to produce any cytokine response
CCCCc1nc2c(N)nc3ccccc3c2n1CCCCN1C(=O)C=CC1=O [Compound 2],–,–,performed similarly to R848; also recorded: potent inducer of myeloid cell activation,specific for TLR7 activity,specific for TLR7 activity,activated murine TLR7,–
